Source: patent US10335453B2, “Compositions and methods for improving sexual function” (Nymox Corporation, priority 2017, dated 2019)
Peptide text beside a SMILES is read from it.

Assays:
[1] = tested on: BPH patients with significant sexual problems; assay: Example 2: SFQ, treatment naïve BPH patients with significant sexual problems (baseline SFQ<=3), one intraprostatic injection, 12 months; type: in vivo, human; settings: at 12 months
Experimental: One hundred twenty three (123) BPH patients with significant sexual problems and with no prior history of any conventional approved medical or surgical treatment (“treatment naïve”) for BPH were given an intraprostatic injection of either (a) NX-1207 (2.5 mg) in phosphate buffered saline pH 7.2 (“PBS”) (n=75) or (b) PBS alone (n=48), under double-blind conditions by a urologist in an office setting under ultrasound guidance. These patients were followed for 12 months after treatment and their progress was monitored by urological investigations. Prior to their treatment each patient's sexual function was assessed by history and each patient completed a Sexual Function Questionnaire (“SFQ”) which scored from 0 to 12 points the degree to which the patient considered they had any problems with 1. lack of sex drive, 2. ability to get and keep an erection, and 3. problems with ejaculation; (Problem Assessment Scale of the Brief Male Sexual Function Inventory). A higher score indicates improvement with a better sexual functional self-assessment and less of a sexual problem; a lower score indicates worsening with more of a sexual problem. Many approved BPH medications and treatments, and conditions are associated with lower scores. All 123 BPH patients in this group had baseline pre-treatment SFQ scores<=3 points indicating significant sexual problems. […]

[2] = tested on: prostate gland; settings: human, in vivo; cited from earlier work
[3] = tested on: BPH patients; assay: Example 3: SFQ mean change, treatment naïve BPH patients, two NX-1207 injections vs PBS followed by one NX-1207 injection; settings: human, in vivo
Experimental: One hundred and fifty six (156) BPH patients with no prior history of any conventional approved medical or surgical treatment (“treatment naïve”) for BPH were given an intraprostatic injection of either (a) NX-1207 (2.5 mg) in phosphate buffered saline pH 7.2 (“PBS”) (n=88) or (b) PBS alone (n=68), under double-blind conditions by a urologist in an office setting under ultrasound guidance. All patients were followed for a period of 12.6-51.1 months and then treated by a second open-label injection of NX-1207 (2.5 mg) in PBS. Prior to their treatment each patient's sexual function was assessed by history and each patient completed a Sexual Function Questionnaire (“SFQ”) which scored from 0 to 12 points the degree to which the patient considered they had any problems with 1. lack of sex drive, 2. ability to get and keep an erection, and 3. problems with ejaculation, (Problem Assessment Scale of the Brief Male Sexual Function Inventory). A higher score indicates improvement with a better sexual functional self-assessment and less of a sexual problem; a lower score indicates worsening with more of a sexual problem. Many approved BPH medications and treatments are associated with lower scores. The SFQ was subsequently re-administered 6 months post second treatment. […]

[4] = tested on: patients with BPH; assay: Example 1: Sexual Function Questionnaire (SFQ), treatment naïve BPH patients, one intraprostatic injection, 12 months follow-up; type: in vivo, human; settings: at 12 months
Experimental: Three hundred and seventy (370) patients with BPH and with no prior history of any conventional approved medical or surgical treatment (“treatment naïve”) for BPH were given an intraprostatic injection of either (a) NX-1207 (2.5 mg) in phosphate buffered saline pH 7.2 (“PBS”) (n=213) or (b) PBS alone (n=157), under double-blind conditions by a urologist in an office setting under ultrasound guidance. These patients were followed for 12 months after treatment and their progress was monitored by urological investigations. Prior to their treatment each patient's sexual function was assessed by history and each patient completed a Sexual Function Questionnaire (“SFQ”) which scored from 0 to 12 points the degree to which the patient considered they had any problems with 1. lack of sex drive, 2. ability to get and keep an erection, and 3. problems with ejaculation, (Problem Assessment Scale of the Brief Male Sexual Function Inventory). A higher score indicates improvement with a better sexual functional self-assessment and less of a sexual problem; a lower score indicates worsening with more of a sexual problem. Many approved BPH medications and treatments are associated with lower scores. The SFQ was subsequently re-administered 12 months post-treatment. The difference from baseline score in the SFQ was compared in NX-1207 patients vs results in patients who received PBS alone.

[5] = tested on: BPH patients; assay: Example 5: SFQ long-term mean change, treatment naive BPH patients, one injection, 12.6-51.1 months; type: in vivo, human; settings: at 12.6-51.1 months
Experimental: One hundred and fifty (150) BPH patients with no prior history of any conventional approved medical or surgical treatment (“treatment naive”) for BPH were given an intraprostatic injection of either (a) (2.5 mg) NX-1207 (2.5 mg) in phosphate buffered saline pH 7.2 (“PBS”) (n=83) or (b) PBS alone (n=67) under double-blind conditions by a urologist in an office setting under ultrasound guidance. These patients were followed for 12.6-51.1 months after treatment and their progress was monitored by urological investigations. Prior to their treatment each patient's sexual function was assessed by history and each patient completed a Sexual Function Questionnaire (“SFQ”) which scored from 0 to 12 points the degree to which the patient considered they had any problems with 1. lack of sex drive, 2. ability to get and keep an erection, and 3. problems with ejaculation; (Problem Assessment Scale of the Brief Male Sexual Function Inventory). A higher score indicates improvement with a better sexual functional self-assessment and less of a sexual problem; a lower score indicates worsening with more of a sexual problem. Many approved BPH medications and treatments are associated with lower scores. The SFQ was subsequently re-administered 12.6-51.1 months post-treatment.

[6] = tested on: BPH patients; assay: Example 4: proportion with no worsening or improvement in SFQ, two NX-1207 injections vs PBS followed by one NX-1207 injection; parameters: species or system human; settings: in vivo
Experimental: One hundred and fifty (150) BPH patients with no prior history of any conventional approved medical or surgical treatment (“treatment naïve”) for BPH were given an intraprostatic injection of either (a) NX-1207 (2.5 mg) in phosphate buffered saline pH 7.2 (“PBS”) (n=83) or (b) PBS alone (n=67), under double-blind conditions by a urologist in an office setting under ultrasound guidance. All patients were followed for a period of 12.6-51.1 months and then treated by a second open-label injection of NX-1207 (2.5 mg) in PBS. Prior to their treatment each patient's sexual function was assessed by history and each patient completed a Sexual Function Questionnaire (“SFQ”) which scored from 0 to 12 points the degree to which the patient considered they had any problems with 1. lack of sex drive, 2. ability to get and keep an erection, and 3. problems with ejaculation, (Problem Assessment Scale of the Brief Male Sexual Function Inventory). A higher score indicates improvement with a better sexual functional self-assessment and less of a sexual problem; a lower score indicates worsening with more of a sexual problem. Many approved BPH medications and treatments are associated with lower scores. The SFQ was subsequently re-administered 6 months post second treatment. […]

[7] = tested on: BPH patients; assay: Example 6: proportion of treatment-naive BPH patients with SFQ<=3, NX-1207 vs PBS, 12.6-51.1 months; type: in vivo, human; settings: at 12.6-51.1 months
Experimental: Three hundred twenty four (324) BPH patients were given an intraprostatic injection of either (a) NX-1207 (2.5 mg) in phosphate buffered saline pH 7.2 (“PBS”) (n=189) or (b) PBS alone (n=135), under double-blind conditions by a urologist in an office setting under ultrasound guidance. These patients were followed for 12.6-51.1 months after treatment and their progress was monitored by urological investigations. Prior to their treatment each patient's sexual function was assessed by history and each patient completed a Sexual Function Questionnaire (“SFQ”) which scored from 0 to 12 points the degree to which the patient considered they had any problems with 1. lack of sex drive, 2. ability to get and keep an erection, and 3. problems with ejaculation; (Problem Assessment Scale of the Brief Male Sexual Function Inventory). A higher score indicates improvement with a better sexual functional self-assessment and less of a sexual problem; a lower score indicates worsening with more of a sexual problem. Many approved BPH medications and treatments are associated with lower scores. Eighty nine (89) BPH patients in this group had baseline pre-treatment SFQ scores<=3 points indicating significant sexual problems. The SFQ was subsequently re-administered 12.6-51.1 months post-treatment. […]

[8] = tested on: BPH patients; assay: Example 7: proportion of BPH patients with SFQ<=3, NX-1207 in treatment naive vs previously treated patients; type: in vivo, human; settings: at 12.6-51.1 months
Experimental: Three hundred and twenty four (324) BPH patients were given an intraprostatic injection of either (a) NX-1207 (2.5 mg) in phosphate buffered saline pH 7.2 (“PBS”) (n=189) or (b) PBS alone (n=135), under double-blind conditions by a urologist in an office setting under ultrasound guidance. These patients were followed for 12.6-51.1 months after treatment and their progress was monitored by urological investigations. Prior to their treatment each patient's sexual function was assessed by history and each patient completed a Sexual Function Questionnaire (“SFQ”) which scored from 0 to 12 points the degree to which the patient considered they had any problems with 1. lack of sex drive, 2. ability to get and keep an erection, and 3. problems with ejaculation; (Problem Assessment Scale of the Brief Male Sexual Function Inventory). A higher score indicates improvement with a better sexual functional self-assessment and less of a sexual problem; a lower score indicates worsening with more of a sexual problem. Many approved BPH medications and treatments are associated with lower scores. Eighty nine (89) BPH patients in this group had baseline pre-treatment SFQ scores<=3 points indicating significant sexual problems. The SFQ was subsequently re-administered 12.6-51.1 months post-treatment. […]

## CC[C@H](C)[C@H](N)C(=O)N[C@@H](CC(=O)O)C(=O)N[C@@H](CCC(N)=O)C(=O)N[C@@H](CCC(N)=O)C(=O)N[C@H](C(=O)N[C@@H](CC(C)C)C(=O)N[C@@H](CO)C(=O)N[C@@H](CCCNC(=N)N)C(=O)N[C@H](C(=O)N[C@@H](CCCCN)C(=O)N[C@@H](CC(C)C)C(=O)N[C@@H](CCC(=O)O)C(=O)N[C@H](C(=O)N[C@@H](CCCCN)C(=O)N[C@@H](CCCNC(=N)N)C(=O)N[C@@H](CS)C(=O)N[C@@H](CC(C)C)C(=O)O)[C@@H](C)CC)[C@@H](C)CC)C(C)C [SEQ ID NO: 66, IDQQVLSRIKLEIKRCL] (H-IDQQVLSRIKLEIKRCL-OH)
[1]
  sexual adverse events attributable to NX-1207: no significant incidence of sexual adverse events
[2]
  safety profile: excellent safety profile
[3]
  sexual adverse events attributable to NX-1207: no significant incidence of sexual adverse events
[4]
  sexual adverse events attributable to NX-1207: no significant incidence of sexual adverse events
[5]
  sexual adverse events attributable to NX-1207: no significant incidence of sexual adverse events
[6]
  sexual adverse events attributable to NX-1207: no significant incidence of sexual adverse events
[7]
  sexual adverse events attributable to NX-1207: no significant incidence of sexual adverse events
[8]
  sexual adverse events attributable to NX-1207: no incidence of significant sexual adverse events
